From paper PMC7285913, “In vitro hepatic biotransformation of the algal toxin pectenotoxin-2” (Toxicon: X, 2020)

How the values were obtained:
[1] = ref Alexander et al., 2009, cited from earlier work; for provisional toxicity equivalent factor (TEF): EFSA
primary rat hepatocytes [2] = assay: Calculation of the hepatic clearance and maximum bioavailability of PTX-2 in rats from hepatocyte half-life; type: in vitro ADME; conditions: for CLb: predicted in vivo hepatic blood clearance in rat, well-stirred model, fub = 1; for CLint: scaled from rat hepatocyte assay
Procedure: The in vitro assay clearance (CLassay) of PTX-2 was calculated from the hepatocyte incubations run with first order kinetics (CLassay = Vassay × ln2/t1/2 [Lh^−1]) using the assay volume (Vassay) and the disappearance half-life (t1/2) of the parent compound as determined from the slope of the linear regression from a semi-logarithmic concentration vs. time plot ([Obach, 1999]). […] The in vivo hepatic blood clearance (CLb) was calculated from CLint by applying the non-restricted well-stirred model (CLb = CLint x Q/(CLint + Q) [L (h x kg)^−1]) ([Houston, 1994]), considering the hepatic blood flow in rat (Q ~ 4.2 L (h x kg)^−1) ([Lin and Lu, 1998]). Potential binding to blood components in vivo was not considered in this study and thus the fraction unbound in blood (fub) set to 1. The maximum bioavailability (Fmax) of PTX-2 in rats was estimated (Fmax = Fa x (1 – (CLb/Q) under the assumption of complete absorption from the gastrointestinal tract (Fa = 1) ([De Buck et al., 2007]) and negligible non-hepatic elimination. Fmax was ranked according to the criteria for low (0–10%), moderate (10–30%) and high bioavailability (up to 100%) ([Obach, 1996]).

mice [3] = conditions: single oral doses of 0.3, 1 and 5 mg/kg bw, preliminary data, ref Burgess and Shaw, 2001, Alexander et al., 2009; cited from earlier work
mice [4] = conditions: intestinal toxicity in mice; ref Alexander et al., 2009; cited from earlier work
primary rat hepatocytes [5] = assay: In vitro hepatocyte assay under kinetic conditions (PTX-2 disappearance); type: in vitro ADME, Wistar rats
Procedure: (§1) Isolated rat liver cells were prepared by a two-step collagenase ex vivo perfusion from male Wistar rats, weighing 250–300 g and kept under routine laboratory conditions with free access to standard laboratory pelleted feed and water ([Seglen, 1976]). The hepatocytes were separated by gradient centrifugation ([Fæste and Moldes-Anaya, 2016]), suspended in PBS, and stored for up to 1 h on ice before use ([Sidelmann et al., 1996], [Gebhardt et al., 2003]). Cell viability was determined microscopically (Leica DMIL microscope; Leica Microsystems GmBH, Wetzlar, Germany), using Trypan blue staining and a Neubauer-counting chamber. About 2.5 × 10^8 living cells per liver were obtained on average, and only preparations with viabilities >92% were used in the metabolism experiments.
(§2) The hepatocyte suspension was diluted with KRB–HEPES buffer pH 7.4 (Krebs-Ringer buffer containing 145 mM NaCl, 5.4 mM KCl, 0.8 mM MgSO4, 0.33 mM Na2HPO4, 0.34 mM KH2PO4, 2 mM CaCl2, and 20 mM HEPES) to a final assay concentration of 2.5 × 10^6 cells/mL. The incubations were performed in capped round-bottom glass tubes in a total assay volume of 5 mL. After pre-incubation for 5 min at 37 °C in a shaking water bath, 5–25 μL of a PTX-2 stock solution containing 1 mg/mL PTX-2 in MeOH were added, resulting in initial concentrations of 1–5 μg/mL PTX-2 in the assay. Aliquots (300 μL) were taken after 0, 2.5, 5, 7.5, 10, 15, 30, and 60 min of incubation and directly transferred into 300 μL ice-cold acetonitrile (ACN) in Eppendorf tubes. Two control samples were included in the experiments, a blank matrix control and a PTX-2 stability control. After centrifuging all samples at 16,000 g for 1 min (5415D centrifuge; Eppendorf AG, Hamburg, Germany), the supernatants were transferred to HPLC vials for analysis by liquid chromatography mass spectrometry (LC-MS) to determine the half-life of PTX-2 in rat hepatocytes.
(§3) LC-MS analyses of centrifuged aliquots from the kinetic assays were performed under reversed phase conditions using a Symmetry C18 column (5 μm, 3.9 × 150 mm) (Waters, Milford, MA, USA) and a binary LC pump (Finnigan Mod. 250) coupled to an Autosampler Plus (Thermo Electron Corporation, San Jose, CA, USA). 5–20 μL samples were injected and eluted using a linear gradient starting with ACN/water (40:60, v/v, both containing 0.1% formic acid and 2 mM ammonium formate) and rising to 100% ACN in 20 min. Isocratic elution with 100% ACN was maintained for 5 min before the eluent was returned to the starting conditions. The flow rate was set to 1 mL/min.

[6] = as above; type: in vitro ADME, Wistar rats; conditions: male, Wistar, primary rat hepatocytes in suspension, pH 7.4, primary rat hepatocytes, read-out: t½,assay (converted)
Procedure: as §1, §2, §3

mussels = conditions: in mussels, in contrast to PTX-2; ref MacKenzie et al., 2005; cited from earlier work
mice [7] = conditions: mouse, ref Suzuki et al., 2006, cited from earlier work

CC1=C\[C@H](C)C[C@@]2(C)CC[C@@H](O2)[C@@]23CC[C@@](CO)(C[C@@H](O2)[C@H]2O[C@](C)(CC2=O)[C@@H](O)[C@@H]2CC[C@@]4(CCC[C@H](O4)[C@@H](C)C(=O)O[C@@H]4C[C@@H]([C@@]5(O)OCC[C@@H](C)[C@H]5O)O[C@@H]4\C=C\1)O2)O3 [PTX-1, reference compound]
provisional toxicity equivalent factor (TEF) [1]: 1

CC(/C=C/[C@H]1O[C@H]([C@@]2(O)OCC[C@@H](C)[C@H]2O)C[C@H]1O)=C\[C@H](C)C[C@@]1(C)CC[C@H]([C@@]23CC[C@@](C)(C[C@H]([C@H]4O[C@@](C)([C@@H](O)[C@@H]5CCC6(CCC[C@@H]([C@@H](C)C(=O)O)O6)O5)CC4=O)O2)O3)O1 (stereo partly drawn) [PTX-2 seco acid (SA), pectenotoxin-2 seco acid]
relative toxicity ([1]; compared with PTXs given TEF of 1): much less toxic

CC1=CC(C)CC2(C)CCC(O2)C23CCC(C)(CC(O2)C2OC(C)(CC2=O)C(O)C2CCC4(CCCC(O4)C(C)C(=O)OC4CC(C5(O)OCCC(C)C5O)OC4C=C1)O2)O3 (stereo not drawn) [PTX-2, pectenotoxin-2]
CLb (primary rat hepatocytes [2]; PTX-2 1.4 μg/mL): 47.3 mL/min/kg | CLint (primary rat hepatocytes [2]; PTX-2 1.4 μg/mL): 146 mL/min/kg | CLb (primary rat hepatocytes [2]; PTX-2 2.6 μg/mL): 50 mL/min/kg | CLint (primary rat hepatocytes [2]; PTX-2 2.6 μg/mL): 174 mL/min/kg | CLb (primary rat hepatocytes [2]; PTX-2 4.8 μg/mL): 47 mL/min/kg | CLint (primary rat hepatocytes [2]; PTX-2 4.8 μg/mL): 143 mL/min/kg | compound predicted to remain unmetabolized after the first pass through the liver (primary rat hepatocytes [2]; after oral uptake, rat): up to 32% | predicted hepatic blood clearance (rank) (primary rat hepatocytes [2]; rat, negligible protein binding and unrestricted absorption assumed): moderate | provisional toxicity equivalent factor (TEF) [1]: 1 | acute reference dose (ARfD) ([1]; established by EFSA): 0.8 μg PTX-2 equivalents/kg body weight (bw) | metabolic elimination (mice [3]): considerable metabolic elimination | uptake from the gastrointestinal tract (mice [3]): low uptake from the gastrointestinal tract | lowest-observed-adverse-effect-level (LOAEL) (mice [4]): 250 μg/kg bw | PTX-2 remaining unchanged (primary rat hepatocytes [5]; after 30 min of incubation, all concentrations, rat hepatocytes): 17–20% | metabolism in freshly isolated rat hepatocytes (primary rat hepatocytes [5]; freshly isolated rat hepatocytes): rapidly metabolized | half-life at 1.4 μg/mL ([6]; PTX-2 1.4 μg/mL): 11.4 min | half-life at 2.6 μg/mL ([6]; PTX-2 2.6 μg/mL): 9.6 min | half-life at 4.8 μg/mL ([6]; PTX-2 4.8 μg/mL): 12 min

CC1=C\[C@H](C)C[C@@]2(C)CC[C@@H](O2)[C@@]23CC[C@@](C=O)(C[C@@H](O2)[C@H]2O[C@](C)(CC2=O)[C@@H](O)[C@@H]2CC[C@@]4(CCC[C@H](O4)[C@@H](C)C(=O)O[C@@H]4C[C@@H]([C@@]5(O)OCC[C@@H](C)[C@H]5O)O[C@@H]4\C=C\1)O2)O3 [PTX-3]
provisional toxicity equivalent factor (TEF) [1]: 1

CC1=C\[C@H](C)C[C@@]2(C)CC[C@@H](O2)[C@@]23CC[C@@](CO)(C[C@@H](O2)[C@H]2O[C@](C)(CC2=O)[C@@H](O)[C@@H]2CC[C@]4(CCC[C@H](O4)[C@@H](C)C(=O)O[C@@H]4C[C@@H]([C@@]5(O)OCC[C@@H](C)[C@H]5O)O[C@@H]4\C=C\1)O2)O3 [PTX-4]
provisional toxicity equivalent factor (TEF) [1]: 1

CC1=C\[C@H](C)C[C@@]2(C)CC[C@@H](O2)[C@@]23CC[C@@](C(=O)O)(C[C@@H](O2)[C@H]2O[C@](C)(CC2=O)[C@@H](O)[C@@H]2CC[C@@]4(CCC[C@H](O4)[C@@H](C)C(=O)O[C@@H]4C[C@@H]([C@@]5(O)OCC[C@@H](C)[C@H]5O)O[C@@H]4\C=C\1)O2)O3 [PTX-6]
provisional toxicity equivalent factor (TEF) [1]: 1

CC1=C\[C@H](C)C[C@@]2(C)CC[C@@H](O2)[C@@]23CC[C@@](C)(C[C@@H](O2)[C@H]2O[C@](C)(CC2=O)[C@@H](O)[C@@H]2CC[C@@]4(CCC[C@H](O4)[C@@H](C)C(=O)O[C@@H]4[C@H](O)[C@@H]([C@@]5(O)OCC[C@@H](C)[C@H]5O)O[C@@H]4\C=C\1)O2)O3 [PTX-11, 34 S-hydroxypectenotoxin-2]
resistance to enzymatic hydrolysis (mussels): relatively resistant to enzymatic hydrolysis | effects after oral application (mice [7]; as much as 5 mg/kg bw p. o.): no effects were detected | LD50 (mice [7]; i. p.): 0.24 mg/kg bw | provisional toxicity equivalent factor (TEF) [1]: 1
